Measurements: patent US6699892B2, “Pharmaceutically acceptable salt of amlodipine and method of preparing the same” (Yung Shin Pharmaceutical Industrial Co., Ltd., priority 2002, dated 2004)
≈ marks a conversion by molar mass, not a printed value. Read-outs that look alike come from different tables or passages of the source.

How the values were obtained:
[1] = assay type: physicochemical; conditions: 3 weeks
Method: The stability of amlodipine nicotinate and amlodipine besylate was tested at 45° C. and 75° C. for 3 weeks.

[2] = Solubility in water at room temperature (saturated aqueous solution); assay type: physicochemical; conditions: room temperature of about 25° C.
Method: At the ambient temperature (room temperature of about 25° C.), a saturated aqueous solution of amlodipine nicotinate contains about 6.0 mg of the chemical per mL of water. In comparison, a saturated aqueous solution of amlodipine besylate contains about 2.0 mg of the chemical per mL of water.

[3] = aqueous solution
[4] = listed as amlodipine nicotinate

SMILES: CCOC(=O)C1=C(COCCN)NC(C)=C(C(=O)OC)C1c1ccccc1Cl (stereo not shown) [Amlodipine Besylate, amlodipine besylate, reference compound]
- Stability Test (% of Sample Purity) (3-week) 45° C. [1]: 99.6%
- Stability Test (% of Sample Purity) (3-week) 75° C. [1]: 97.8%
- Solubility in Water at Room Temperature [2]: about 2.0 mg/ml
- pH Value [3]: 6.09

SMILES: CCOC(=O)C1=C(COCCN)NC(C)=C(C(=O)OC)C1c1ccccc1Cl (stereo not shown) [Amlodipine Nicotinate, amlodipine nicotinate]
- Stability Test (% of Sample Purity) (3-week) 45° C. [1]: 99.7%
- Stability Test (% of Sample Purity) (3-week) 75° C. [1]: 99.2%
- Solubility in Water at Room Temperature [2]: 6.0 mg/mL (≈ 14.7 mM)
- Solubility in Water at Room Temperature [2, 4]: about 6.0 mg/ml
- pH Value [3]: 5.34
- pH Value [3, 4]: 5.34
